# Source: the supplement of paper PMC10307832
# Tests used:
# Assay in all cases: relative viability (nuclei count vs DMSO), 5 days (fraction); higher = more cells survive
# [1] = system: NCI-H1666
# Method in brief: (§1)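 Nuclei were stained with Hoechst during a one-step fixation (final 0.05% Triton X-100, 1% formaldehyde, 1 ug/ml Hoechst) carried out 5 days after dosing, then counted on 4× images. The cells, lung cancer lines in 1536-well plates, had been dosed by pin tool the day after seeding with one drug alone or a fixed anchor-drug dose plus five library-drug doses (not always all listed) in √10 steps. Relative viability is the nuclei count in treated wells divided by that in vehicle wells, and each value is the median of duplicate plates.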
# [2] = system: NCI-H2170
# Method in brief: as §1
# [3] = system: NCI-H1437
# Method in brief: as §1
# [4] = system: LK-2
# Method in brief: as §1
# [5] = system: BEN
# Method in brief: as §1
# [6] = system: NCI-H1993
# Method in brief: as §1
# [7] = system: EKVX
# Method in brief: as §1
# [8] = system: PC-14
# Method in brief: as §1
# [9] = system: SK-MES-1
# Method in brief: as §1
# [10] = system: RERF-LC-KJ
# Method in brief: as §1
# [11] = system: NCI-H661
# Method in brief: as §1
# [12] = system: NCI-H727
# Method in brief: as §1
# [13] = system: LCLC-103H
# Method in brief: as §1
# [14] = system: LOU-NH91
# Method in brief: as §1
# [15] = system: ChaGo-K-1
# Method in brief: as §1
# [16] = system: NCI-H441
# Method in brief: as §1
# [17] = system: LXF-289
# Method in brief: as §1
# [18] = system: NCI-H1944
# Method in brief: as §1
# [19] = system: NCI-H647
# Method in brief: as §1
# [20] = system: NCI-H2126
# Method in brief: as §1
# [21] = system: NCI-H1355
# Method in brief: as §1
# [22] = system: HOP-62
# Method in brief: as §1
# [23] = system: HCC-827
# Method in brief: as §1
smiles,measurement,setting,value
CCNC(=O)c1noc(-c2cc(C(C)C)c(O)cc2O)c1-c1ccc(CN2CCOCC2)cc1 [Luminespib] + N=C(N)NC(=N)NCCc1ccccc1 [Phenformin] (partner 250 µM),relative viability,[1]; first compound 0.002 µM,0.583
same,relative viability,[1]; first compound 0.006325 µM,0.533
same,relative viability,[1]; first compound 0.02 µM,0.574
same,relative viability,[1]; first compound 0.06325 µM,0.532
same,relative viability,[1]; first compound 0.2 µM,0.538
same,relative viability,[2]; first compound 0.002 µM,0.405
same,relative viability,[2]; first compound 0.006325 µM,0.398
same,relative viability,[2]; first compound 0.02 µM,0.376
same,relative viability,[2]; first compound 0.06325 µM,0.236
same,relative viability,[2]; first compound 0.2 µM,0.158
same,relative viability,[3]; first compound 0.002 µM,0.325
same,relative viability,[3]; first compound 0.006325 µM,0.3
same,relative viability,[3]; first compound 0.02 µM,0.358
same,relative viability,[3]; first compound 0.06325 µM,0.173
same,relative viability,[3]; first compound 0.2 µM,0.154
same,relative viability,[4]; first compound 0.002 µM,0.474
same,relative viability,[4]; first compound 0.006325 µM,0.436
same,relative viability,[4]; first compound 0.02 µM,0.252
same,relative viability,[4]; first compound 0.06325 µM,0.0992
same,relative viability,[4]; first compound 0.2 µM,0.141
same,relative viability,[5]; first compound 0.002 µM,0.259
same,relative viability,[5]; first compound 0.006325 µM,0.268
same,relative viability,[5]; first compound 0.02 µM,0.273
same,relative viability,[5]; first compound 0.06325 µM,0.216
same,relative viability,[5]; first compound 0.2 µM,0.199
same,relative viability,[6]; first compound 0.002 µM,0.46
same,relative viability,[6]; first compound 0.006325 µM,0.474
same,relative viability,[6]; first compound 0.02 µM,0.476
same,relative viability,[6]; first compound 0.06325 µM,0.394
same,relative viability,[6]; first compound 0.2 µM,0.36
same,relative viability,[7]; first compound 0.002 µM,0.236
same,relative viability,[7]; first compound 0.006325 µM,0.209
same,relative viability,[7]; first compound 0.06325 µM,0.223
same,relative viability,[7]; first compound 0.2 µM,0.104
same,relative viability,[8]; first compound 0.002 µM,0.618
same,relative viability,[8]; first compound 0.006325 µM,0.393
same,relative viability,[8]; first compound 0.02 µM,0.196
same,relative viability,[8]; first compound 0.06325 µM,0.0634
same,relative viability,[8]; first compound 0.2 µM,0.0788
same,relative viability,[9]; first compound 0.002 µM,0.642
same,relative viability,[9]; first compound 0.006325 µM,0.623
same,relative viability,[9]; first compound 0.02 µM,0.702
same,relative viability,[9]; first compound 0.06325 µM,0.189
same,relative viability,[9]; first compound 0.2 µM,0.193
same,relative viability,[10]; first compound 0.002 µM,0.409
same,relative viability,[10]; first compound 0.006325 µM,0.418
same,relative viability,[10]; first compound 0.02 µM,0.512
same,relative viability,[10]; first compound 0.06325 µM,0.25
same,relative viability,[10]; first compound 0.2 µM,0.238
same,relative viability,[11]; first compound 0.002 µM,0.262
same,relative viability,[11]; first compound 0.006325 µM,0.279
same,relative viability,[11]; first compound 0.02 µM,0.27
same,relative viability,[11]; first compound 0.06325 µM,0.241
same,relative viability,[11]; first compound 0.2 µM,0.191
same,relative viability,[12]; first compound 0.002 µM,0.564
same,relative viability,[12]; first compound 0.006325 µM,0.398
same,relative viability,[12]; first compound 0.02 µM,0.361
same,relative viability,[12]; first compound 0.06325 µM,0.318
same,relative viability,[12]; first compound 0.2 µM,0.175
same,relative viability,[13]; first compound 0.002 µM,0.322
same,relative viability,[13]; first compound 0.006325 µM,0.361
same,relative viability,[13]; first compound 0.02 µM,0.351
same,relative viability,[13]; first compound 0.06325 µM,0.353
same,relative viability,[13]; first compound 0.2 µM,0.188
same,relative viability,[14]; first compound 0.002 µM,0.741
same,relative viability,[14]; first compound 0.006325 µM,0.716
same,relative viability,[14]; first compound 0.02 µM,0.525
same,relative viability,[14]; first compound 0.06325 µM,0.287
same,relative viability,[14]; first compound 0.2 µM,0.322
same,relative viability,[15]; first compound 0.002 µM,0.504
same,relative viability,[15]; first compound 0.006325 µM,0.456
same,relative viability,[15]; first compound 0.02 µM,0.467
same,relative viability,[15]; first compound 0.06325 µM,0.303
same,relative viability,[15]; first compound 0.2 µM,0.152
same,relative viability,[16]; first compound 0.002 µM,0.841
same,relative viability,[16]; first compound 0.006325 µM,0.689
same,relative viability,[16]; first compound 0.02 µM,0.732
same,relative viability,[16]; first compound 0.06325 µM,0.216
same,relative viability,[16]; first compound 0.2 µM,0.135
same,relative viability,[17]; first compound 0.002 µM,0.429
same,relative viability,[17]; first compound 0.006325 µM,0.482
same,relative viability,[17]; first compound 0.02 µM,0.593
same,relative viability,[17]; first compound 0.06325 µM,0.163
same,relative viability,[17]; first compound 0.2 µM,0.0721
same,relative viability,[18]; first compound 0.002 µM,0.219
same,relative viability,[18]; first compound 0.006325 µM,0.189
same,relative viability,[18]; first compound 0.02 µM,0.205
same,relative viability,[18]; first compound 0.06325 µM,0.112
same,relative viability,[18]; first compound 0.2 µM,0.111
same,relative viability,[19]; first compound 0.002 µM,0.396
same,relative viability,[19]; first compound 0.006325 µM,0.504
same,relative viability,[19]; first compound 0.02 µM,0.429
same,relative viability,[19]; first compound 0.06325 µM,0.0796
same,relative viability,[19]; first compound 0.2 µM,0.0823
same,relative viability,[20]; first compound 0.002 µM,0.523
same,relative viability,[20]; first compound 0.006325 µM,0.506
same,relative viability,[20]; first compound 0.02 µM,0.497
same,relative viability,[20]; first compound 0.06325 µM,0.279
same,relative viability,[20]; first compound 0.2 µM,0.307
same,relative viability,[21]; first compound 0.002 µM,0.431
same,relative viability,[21]; first compound 0.006325 µM,0.456
same,relative viability,[21]; first compound 0.02 µM,0.382
same,relative viability,[21]; first compound 0.06325 µM,0.254
same,relative viability,[21]; first compound 0.2 µM,0.17
same,relative viability,[22]; first compound 0.002 µM,0.674
same,relative viability,[22]; first compound 0.006325 µM,0.721
same,relative viability,[22]; first compound 0.02 µM,0.696
same,relative viability,[22]; first compound 0.06325 µM,0.364
same,relative viability,[22]; first compound 0.2 µM,0.165
same,relative viability,[23]; first compound 0.002 µM,0.385
same,relative viability,[23]; first compound 0.006325 µM,0.384
same,relative viability,[23]; first compound 0.02 µM,0.369
same,relative viability,[23]; first compound 0.06325 µM,0.281
same,relative viability,[23]; first compound 0.2 µM,0.141
